Several values for one entry are separate records, joined by “and”; a condition that tells them apart may be missing. Equal values may be shown once.

3 compounds from patent publication US20120302598A1, “IMIDAZOPYRIDINONES” (PFIZER LIMITED, priority 2007, published 2012) can be followed below.

One test deals with T1, TLR7 (Homo sapiens, UniProt Q9NYK1).
T1 construct: PBL contain as a subpopulation plasmacytoid dendritic cells which are the natural interferon producing cells; endogenous in cells; host or cells: peripheral blood lymphocytes (PBL), containing plasmacytoid dendritic cells
T1 sequence (Q9NYK1 27-1049): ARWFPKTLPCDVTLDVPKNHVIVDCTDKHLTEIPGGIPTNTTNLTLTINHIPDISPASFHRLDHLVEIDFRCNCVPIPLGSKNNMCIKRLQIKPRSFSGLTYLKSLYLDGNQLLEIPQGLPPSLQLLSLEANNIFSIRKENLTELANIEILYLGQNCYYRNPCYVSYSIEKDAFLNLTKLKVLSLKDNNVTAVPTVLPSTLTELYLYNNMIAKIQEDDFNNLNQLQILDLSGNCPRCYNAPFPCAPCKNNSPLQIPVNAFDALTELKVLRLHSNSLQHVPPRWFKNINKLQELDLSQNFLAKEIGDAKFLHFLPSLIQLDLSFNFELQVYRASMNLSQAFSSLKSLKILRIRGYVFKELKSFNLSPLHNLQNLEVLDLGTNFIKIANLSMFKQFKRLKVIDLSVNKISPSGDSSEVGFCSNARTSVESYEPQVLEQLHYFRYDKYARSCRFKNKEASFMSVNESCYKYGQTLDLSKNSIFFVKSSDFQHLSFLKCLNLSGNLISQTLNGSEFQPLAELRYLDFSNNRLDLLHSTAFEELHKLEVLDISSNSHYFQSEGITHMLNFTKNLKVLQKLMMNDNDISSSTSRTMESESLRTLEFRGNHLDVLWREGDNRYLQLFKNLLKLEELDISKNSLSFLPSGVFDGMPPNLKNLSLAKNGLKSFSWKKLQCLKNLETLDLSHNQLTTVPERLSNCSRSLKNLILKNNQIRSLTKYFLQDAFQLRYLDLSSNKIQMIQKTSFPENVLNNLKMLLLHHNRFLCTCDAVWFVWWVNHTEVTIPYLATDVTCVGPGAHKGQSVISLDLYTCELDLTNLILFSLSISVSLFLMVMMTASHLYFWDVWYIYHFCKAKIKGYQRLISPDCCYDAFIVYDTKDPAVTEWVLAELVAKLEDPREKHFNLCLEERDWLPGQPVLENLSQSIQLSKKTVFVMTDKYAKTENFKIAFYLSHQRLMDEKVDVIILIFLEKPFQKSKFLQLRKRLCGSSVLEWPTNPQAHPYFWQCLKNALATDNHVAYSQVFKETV
Briefly: PBL/HCV replicon bioassay. It is filed as cell-based. Particulars: read-out: EC50 (nM) (n = no. of experiments). The text has this: EMCV: Encephalomyocarditis virus IRES: Internal ribosmomal entry site Huh: Huh-7 human hepatoma cell line 7 (parental cells used to generate HCV replicon cell lines) IUC: luciferase ubi: ubiquitin neo: neomycin ET: glutamic acid, threonine (cell culture adaptive mutations in the replicon used in the assay) RPMI-FCS: Roswell Park Memorial Institute (cell culture medium for PBL)—Foetal Calf Serum PBL: peripheral blood lymphocytes
PBL contain as a subpopulation plasmacytoid dendritic cells which are the natural interferon producing cells during an infection and as such are an excellent model in which to profile interferon inducers. As an extremely sensitive antiviral bioassay, supernatant taken from PBL is assayed for antiviral activity in the HCV replicon system.
The HCV replicon (Huh-5-2[l389 luc-ubi-neo-NS3-3′/ET]) is an in vitro model of HCV replication in which the luciferase reporter is incorporated into HCV sequences and stably maintained in the human hepatoma cell line Huh-7. The firefly luciferase reporter is expressed as a luciferase-ubiquitin-neomycin phosphotransferase fusion protein which is cleaved by host proteases to release luciferase. […] Firefly luciferase activity is detected using a Bright-Glo™ Luciferase Assay System manufactured by Promega. […]
(In general: A replicon is a self-replicating genome or part of one, used to study replication in cells.)

Test [1] deals with HCV replicon containing cells. Briefly: Direct response of HCV replicon containing cells to TLR agonists. It is filed as cell-based, human. As to conditions: compound applied directly to replicon cells, not via PBL conditioned medium.

As to `Cc1ccc(Cn2c(=O)[nH]c3c(N)nc(OCC4CCCO4)cc32)cn1` (stereo not drawn) [Example 5, 4-Amino-1-(6-methyl-pyridin-3-ylmethyl)-6-(tetrahydro-furan-2-R/S-ylmethoxy)-1,3-dihydro-imidazo[4,5-c]pyridin-2-one], the EC50 (in general, the concentration that produces a half-maximal response) on TLR7 was 698 nM and 1240 nM and 1160 nM and 3700 nM and 475 nM and 1430 nM and 1040 nM and 583 nM and 1010 nM and 737 nM.
For the compound `Cc1ccc(Cn2c(=O)[nH]c3c(N)nc(OC[C@H]4CCCO4)cc32)cn1` [Example 6, 4-Amino-1-(6-methyl-pyridin-3-ylmethyl)-6-(tetrahydro-furan-2-R-ylmethoxy)-1,3-dihydro-imidazo[4,5-c]pyridin-2-one], the EC50 on TLR7 was > 4000 nM and 1920 nM and 1000 nM and 1450 nM and 1940 nM and 1470 nM and 1250 nM and 1580 nM.
For the compound `CC(C)Cn1cnc2c(N)nc3ccccc3c21` [Imiquimod], in test [1], the “direct response of HCV replicon containing cells to the TLR agonist” value was “do not respond directly”.
